Active and inactive are the calls of the source. No cut-off for these calls is given here.
Legend:
[1] = test system: Mus musculus; assay: Neuroprotection against oligomerized-amyloid beta (25 to 35)-induced Swiss mouse model of Alzheimer's disease assessed as increase in number of arm entries at 0.3 to 3 mg/kg, ip administered once daily for 7 days measured on day 8 by Y-maze test; assay type: functional, organism-based
[2] = test system: HT-22; assay: Neuroprotection against glutamate-induced cell death in mouse HT22 cells assessed as increase in cell viability measured after 24 hrs by MTT assay; assay type: functional, cell-based
[3] = test system: Mus musculus; assay: Effect on shock sensitivity during training in Swiss mouse model of Alzheimer's disease assessed as increase in retention latency time at 0.3 to 3 mg/kg, ip administered once daily for 7 days measured 48 hrs post-last dose by step-through passive avoidance test; assay type: ADME, organism-based; details: in vivo
[4] = target: T1, Cholinesterase (Homo sapiens, UniProt P06276); assay: Inhibition of human plasma BChE using butyrylthiocholine iodide as substrate preincubated for 20 mins followed by substrate addition and measured after 2.5 mins by DTNB reagent based spectrometric method
[5] = test system: Mus musculus; assay: Neuroprotection against oligomerized-amyloid beta (25 to 35)-induced Swiss mouse model of Alzheimer's disease assessed as increase in retention latency time at 0.3 to 3 mg/kg, ip administered once daily for 7 days measured 48 to 72 hrs post-last dose by step-through passive avoidance test; assay type: functional, organism-based
[6] = test system: HT-22; assay: Neurotoxicity in mouse HT22 cells assessed as reduction in cell viability up to 25 uM measured after 24 hrs by MTT assay; assay type: toxicity, cell-based; details: ht-22, 24 h
[7] = target: T1, Cholinesterase; assay: (§1) Inhibition of human plasma BChE assessed as half life for enzyme-inhibitor complex formation at IC>85 using butyrylthiocholine iodide as substrate incubated for 1 hr prior to compound dilution further incubated for 1 to 40 mins and subsequent substrate addition and measured after 2.5 mins by DTNB reagent based UV-spectrometric method
[8] = target: Acetylcholinesterase (Homo sapiens) (UniProt P22303); assay: Inhibition of human erythrocyte AChE at 10 uM using acetylthiocholine iodide as substrate preincubated for 20 mins followed by substrate addition and measured after 2.5 mins by DTNB reagent based spectrometric method relative to control
[9] = target: T1, Cholinesterase; assay: (§2) Inhibition of human plasma BChE assessed as carbamylation by measuring rate constant for inhibitor-enzyme complex formation using butyrylthiocholine iodide as substrate preincubated for 5 to 40 mins followed by substrate addition and measured after 2.5 mins by DTNB reagent based UV-spectrometric method
[10] = test system: Mus musculus; assay: Neuroprotection against oligomerized-amyloid beta (25 to 35)-induced Swiss mouse model of Alzheimer's disease assessed as improvement in spontaneous alternation at 0.3 mg/kg, ip administered once daily for 7 days measured on day 8 by Y-maze test; assay type: functional, organism-based
[11] = target: T1, Cholinesterase; assay: as §1, with “decarbamylation by measuring rate constant” for “half life”, “enzyme recovery” for “enzyme-inhibitor complex formation”
[12] = test system: Mus musculus; assay: Effect on latency time during training in Swiss mouse model of Alzheimer's disease assessed as increase in retention latency time at 0.3 to 3 mg/kg, ip administered once daily for 7 days measured 48 hrs post-last dose by step-through passive avoidance test; assay type: ADME, organism-based; details: in vivo
[13] = target: Cholinesterases; ACHE & BCHE (Homo sapiens) (UniProt P06276+P22303); assay: Selectivity index, ratio of IC50 for inhibition of human erythrocyte AChE to IC50 for inhibition of human plasma BChE; assay type: protein assay
[14] = Toxicity in oligomerized-amyloid beta (25 to 35)-induced Swiss mouse model of Alzheimer's disease assessed as effect on body weight gain at 0.3 to 3 mg/kg, ip administered once daily for 7 days measured daily during compound dosing; assay type: organism-based; details: in vivo, 168 h
[15] = target: T1, Cholinesterase; assay: as §2, with “[…]” for “inhibitor-enzyme”
[16] = test system: Mus musculus; assay: Neuroprotection against oligomerized-amyloid beta (25 to 35)-induced Swiss mouse model of Alzheimer's disease assessed as improvement in spontaneous alternation at 3 mg/kg, ip administered once daily for 7 days measured on day 8 by Y-maze test; assay type: functional, organism-based
[17] = test system: Mus musculus; assay: Neuroprotection against oligomerized-amyloid beta (25 to 35)-induced Swiss mouse model of Alzheimer's disease assessed as increase in retention latency time at 1 to 3 mg/kg, ip administered once daily for 7 days measured 48 to 72 hrs post-last dose by step-through passive avoidance test; assay type: functional, organism-based
[18] = target: T2, Acetylcholinesterase (Mus musculus, UniProt P21836); assay: Inhibition of mouse AChE using acetylthiocholine as substrate measured after 300 secs by Ellman's method
T2 sequence (P21836 whole entry): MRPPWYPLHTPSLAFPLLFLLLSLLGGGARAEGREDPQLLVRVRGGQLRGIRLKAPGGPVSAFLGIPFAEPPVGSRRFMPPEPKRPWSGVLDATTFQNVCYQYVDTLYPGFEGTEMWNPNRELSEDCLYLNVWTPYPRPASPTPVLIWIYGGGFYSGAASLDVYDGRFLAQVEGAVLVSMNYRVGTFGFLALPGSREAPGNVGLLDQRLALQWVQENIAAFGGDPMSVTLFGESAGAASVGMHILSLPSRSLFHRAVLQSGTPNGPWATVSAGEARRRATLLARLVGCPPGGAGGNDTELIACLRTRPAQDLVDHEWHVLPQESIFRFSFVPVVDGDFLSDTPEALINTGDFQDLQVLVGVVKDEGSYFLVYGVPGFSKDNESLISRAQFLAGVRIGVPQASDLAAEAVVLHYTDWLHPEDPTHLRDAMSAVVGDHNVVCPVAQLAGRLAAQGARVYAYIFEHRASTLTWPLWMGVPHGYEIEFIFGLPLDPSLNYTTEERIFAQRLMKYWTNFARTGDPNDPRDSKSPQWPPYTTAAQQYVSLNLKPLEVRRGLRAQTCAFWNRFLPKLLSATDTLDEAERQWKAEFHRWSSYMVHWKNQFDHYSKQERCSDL

[19] = test system: Mus musculus; assay: Neuroprotection against oligomerized-amyloid beta (25 to 35)-induced Swiss mouse model of Alzheimer's disease assessed as improvement in spontaneous alternation at 0.3 to 3 mg/kg, ip administered once daily for 7 days measured on day 8 by Y-maze test; assay type: functional, organism-based
[20] = test system: HT-22; assay: Neuroprotection against glutamate-induced cell death in mouse HT22 cells assessed as increase in cell viability at 5 uM measured after 24 hrs by MTT assay; assay type: functional, cell-based
[21] = test system: Mus musculus; assay: Neuroprotection against oligomerized-amyloid beta (25 to 35)-induced Swiss mouse model of Alzheimer's disease assessed as improvement in spontaneous alternation at 1 to 3 mg/kg, ip administered once daily for 7 days measured on day 8 by Y-maze test; assay type: functional, organism-based
[22] = test system: Mus musculus; assay: Neuroprotection against oligomerized-amyloid beta (25 to 35)-induced Swiss mouse model of Alzheimer's disease assessed as improvement in spontaneous alternation at 1 mg/kg, ip administered once daily for 7 days measured on day 8 by Y-maze test; assay type: functional, organism-based

Chain of Acetylcholinesterase (Homo sapiens) (P22303 whole entry): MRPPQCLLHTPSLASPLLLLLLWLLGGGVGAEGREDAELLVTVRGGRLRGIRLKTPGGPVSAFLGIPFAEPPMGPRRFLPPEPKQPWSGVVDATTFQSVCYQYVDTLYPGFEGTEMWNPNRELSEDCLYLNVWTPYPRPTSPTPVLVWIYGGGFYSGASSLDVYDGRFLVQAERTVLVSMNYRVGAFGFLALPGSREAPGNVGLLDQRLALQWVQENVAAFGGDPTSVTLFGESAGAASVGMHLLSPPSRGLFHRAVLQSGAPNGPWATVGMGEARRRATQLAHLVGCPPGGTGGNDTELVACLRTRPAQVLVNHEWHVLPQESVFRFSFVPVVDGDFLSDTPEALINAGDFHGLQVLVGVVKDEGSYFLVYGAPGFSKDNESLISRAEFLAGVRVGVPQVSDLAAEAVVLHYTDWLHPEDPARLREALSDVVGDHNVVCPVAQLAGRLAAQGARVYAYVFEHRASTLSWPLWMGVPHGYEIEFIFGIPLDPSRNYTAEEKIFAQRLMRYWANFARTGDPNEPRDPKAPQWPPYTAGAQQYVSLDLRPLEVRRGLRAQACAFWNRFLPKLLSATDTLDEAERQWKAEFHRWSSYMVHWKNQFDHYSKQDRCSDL
T1 sequence (P06276 whole entry): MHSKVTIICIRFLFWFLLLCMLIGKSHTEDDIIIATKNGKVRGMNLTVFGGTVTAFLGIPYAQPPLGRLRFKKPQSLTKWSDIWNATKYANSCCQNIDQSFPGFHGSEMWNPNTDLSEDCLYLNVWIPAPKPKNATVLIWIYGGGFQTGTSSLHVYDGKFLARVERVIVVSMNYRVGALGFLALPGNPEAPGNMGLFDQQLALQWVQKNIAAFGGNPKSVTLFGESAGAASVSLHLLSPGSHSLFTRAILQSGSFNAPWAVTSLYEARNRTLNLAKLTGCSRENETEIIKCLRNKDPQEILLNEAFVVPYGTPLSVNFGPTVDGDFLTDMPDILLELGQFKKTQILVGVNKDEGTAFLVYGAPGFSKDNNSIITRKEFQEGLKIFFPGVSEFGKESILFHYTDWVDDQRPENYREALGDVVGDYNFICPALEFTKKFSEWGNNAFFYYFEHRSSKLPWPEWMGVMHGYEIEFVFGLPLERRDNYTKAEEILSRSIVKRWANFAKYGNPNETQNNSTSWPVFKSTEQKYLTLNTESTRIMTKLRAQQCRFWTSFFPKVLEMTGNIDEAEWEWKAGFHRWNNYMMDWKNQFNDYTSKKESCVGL
Chain of Cholinesterases; ACHE & BCHE (Homo sapiens) (P06276 whole entry, looked up): as the sequence (P06276 whole entry) above
Chain of Cholinesterases; ACHE & BCHE (Homo sapiens) (P22303 whole entry, looked up): as the sequence (P22303 whole entry) above

CN1c2ccc(OC(=O)NCCCCCCN3CCOCC3)cc2CN2CCc3ccccc3C21 (centres undefined)
Activity [1]: Active | Activity [2]: Dose-dependent effect | Activity [3]: Non-Toxic | IC50 [4]: 49.3 nM | Activity [5]: Active | Activity [6]: Non-Toxic | T1/2 [7]: 16.5 h | inhibition [8]: 26.1% | K [9]: 0.16 min⁻¹ | Activity [10]: Active | K [11]: 0.042 h⁻¹ | Activity [12]: Non-Toxic | Ratio IC50 [13]: > 1000 | Activity [14]: Non-Toxic | K [15]: 202 nM

CCCCCCCNC(=O)Oc1ccc2c(c1)CN(C)C(c1cccs1)N2C (centres undefined)
Activity [1]: inactive | Activity [3]: Non-Toxic | Activity [16]: Active | Activity [17]: Active | Activity [12]: Non-Toxic | Activity [14]: Non-Toxic

CN1c2ccc(OC(=O)NCCCN3CCc4ccccc4C3)cc2CN2CCc3ccccc3C21 (centres undefined)
IC50 [4]: 1160 nM | inhibition [8]: 6.4% | Ratio IC50 [13]: > 10

CN1c2ccc(OC(=O)NCCCN3CCOCC3)cc2CN2CCc3ccccc3C21 (centres undefined)
inhibition [8]: 2.1% | Ratio IC50 [13]: > 100

CN1c2ccc(OC(=O)NCCCCCCn3ccnc3)cc2CN2CCc3ccccc3C21 (centres undefined)
IC50 [4]: 13.3 nM | T1/2 [7]: 0.85 h | inhibition [8]: 9.1% | K [9]: 0.31 min⁻¹ | K [11]: 0.82 h⁻¹ | Ratio IC50 [13]: > 1000 | K [15]: 13.1 nM

CN1c2ccc(OC(=O)NCCCCCCCCCCN3CCOCC3)cc2CN2CCc3ccccc3C21 (centres undefined)
IC50 [4]: 11.5 nM | inhibition [8]: 17.8% | Ratio IC50 [13]: > 1000

CN1c2ccc(OC(=O)NCCCCCCN3CCCCC3)cc2CN2CCc3ccccc3C21 (centres undefined)
IC50 [4]: 83.7 nM | T1/2 [7]: 5.64 h | K [11]: 0.123 h⁻¹ | Ratio IC50 [13]: 14

CN1c2ccc(OC(=O)NCCCCCCN3CCNCC3)cc2CN2CCc3ccccc3C21 (centres undefined)
IC50 [4]: 80.6 nM | T1/2 [7]: 0.48 h | inhibition [8]: 35.5% | K [9]: 0.32 min⁻¹ | K [11]: 1.44 h⁻¹ | Ratio IC50 [13]: > 100 | K [15]: 121 nM

COCCN(CC1CCCN(Cc2ccccc2)C1)S(=O)(=O)c1ccc2ccccc2c1 (centres undefined)
IC50 [18]: > 10000 nM

CN1c2ccc(OC(=O)NCCCCCCN3CCN(C(=O)OC(C)(C)C)CC3)cc2CN2CCc3ccccc3C21 (centres undefined)
IC50 [4]: 123 nM | inhibition [8]: 70.6% | K [9]: 0.7 min⁻¹ | Ratio IC50 [13]: > 10 | K [15]: 1550 nM

CN1c2ccc(OC(=O)NCCCCN3CCc4ccccc4C3)cc2CN2CCc3ccccc3C21 (centres undefined)
IC50 [4]: 192 nM | T1/2 [7]: 24.8 h | inhibition [8]: 6% | K [11]: 0.028 h⁻¹ | Ratio IC50 [13]: > 100

CN1c2ccc(OC(=O)NCCCCCCCCN3CCc4ccccc4C3)cc2CN2CCc3ccccc3C21 (centres undefined)
IC50 [4]: 32.6 nM | T1/2 [7]: 0.84 h | inhibition [8]: 6.2% | K [11]: 0.83 h⁻¹ | Ratio IC50 [13]: > 1000

CN1c2ccc(OC(=O)NCCCCCCN3CCCC3)cc2CN2CCc3ccccc3C21 (centres undefined)
IC50 [4]: 34.3 nM | T1/2 [7]: 0.71 h | K [11]: 0.98 h⁻¹ | Ratio IC50 [13]: 26

CN1c2ccc(OC(=O)NCCN3CCOCC3)cc2CN2CCc3ccccc3C21 (centres undefined)
inhibition [8]: 4.1% | Ratio IC50 [13]: > 10

CN1c2ccc(O)cc2CN2CCc3ccccc3C21 (centres undefined)
Activity [1]: Active | Activity [3]: Non-Toxic | Activity [19]: inactive | Activity [5]: inactive | Activity [12]: Non-Toxic | Activity [14]: Non-Toxic

CN1c2ccc(OC(=O)NCCCCCCCCCCN3CCc4ccccc4C3)cc2CN2CCc3ccccc3C21 (centres undefined)
inhibition [8]: 5.7% | K [9]: 0.25 min⁻¹ | Ratio IC50 [13]: > 1000 | K [15]: 5.68 nM

CN1c2ccc(OC(=O)NCCCCCCn3cnc4ccccc43)cc2CN2CCc3ccccc3C21 (centres undefined)
T1/2 [7]: 1.55 h | inhibition [8]: 28.8% | K [9]: 0.26 min⁻¹ | K [11]: 0.45 h⁻¹ | Ratio IC50 [13]: > 1000 | K [15]: 7.7 nM

CN1c2ccc(OC(=O)NCCN3CCc4ccccc4C3)cc2CN2CCc3ccccc3C21 (centres undefined)
IC50 [4]: 1720 nM | inhibition [8]: 3.9% | K [9]: > 20 min⁻¹ | Ratio IC50 [13]: > 10 | K [15]: > 200000 nM

CCCCCCCNC(=O)Oc1ccc2c(c1)CN1CCc3ccccc3C1N2C (centres undefined)
Activity [1]: Active | Activity [3]: Non-Toxic | Activity [5]: Active | Activity [6]: Non-Toxic | Activity [20]: Active | K [9]: 0.66 min⁻¹ | Activity [12]: Non-Toxic | Activity [14]: Non-Toxic | Activity [21]: Active

CN1c2ccc(OC(=O)NCCCCCCCCN3CCOCC3)cc2CN2CCc3ccccc3C21 (centres undefined)
IC50 [4]: 19.8 nM | T1/2 [7]: 0.44 h | inhibition [8]: 13.6% | K [11]: 1.58 h⁻¹ | Ratio IC50 [13]: > 1000

CN1c2ccc(OC(=O)NCCCCCCN3CCc4ccccc4C3)cc2CN2CCc3ccccc3C21 (centres undefined)
Activity [1]: Active | Activity [22]: Active | Activity [2]: Dose-dependent effect | Activity [3]: Non-Toxic | IC50 [4]: 26.7 nM | Activity [5]: Active | Activity [6]: Non-Toxic | T1/2 [7]: 27.7 h | inhibition [8]: 0.4% | K [9]: 0.18 min⁻¹ | K [11]: 0.025 h⁻¹ | Activity [12]: Non-Toxic | Ratio IC50 [13]: > 1000 | Activity [14]: Non-Toxic | K [15]: 3.6 nM

CN1c2ccc(OC(=O)NCCCCN3CCOCC3)cc2CN2CCc3ccccc3C21 (centres undefined)
IC50 [4]: 50.6 nM | T1/2 [7]: 1.44 h | inhibition [8]: 16.3% | K [11]: 0.48 h⁻¹ | Ratio IC50 [13]: > 1000

Source: ChEMBL document CHEMBL4321822 (J Med Chem, 2019)
